Key:
PC-3 = test: Antiproliferative activity against PC-3 cancer cells; assay type: functional, cell-based; settings: Homo sapiens
MCF7 = test: Antiproliferative activity against MCF-7 cancer cell line; assay type: functional, cell-based; settings: Homo sapiens
Homo sapiens = species: Homo sapiens; test: Antiproliferative activity against SQ-20B cancer cells; assay type: functional; settings: Cancer cell lines
HeLa = test: Antiproliferative activity towards human HeLa cancer cells; assay type: functional, cell-based

Row | Structure (SMILES) | IC50 (PC-3) [µM] | IC50 (MCF7) [µM] | IC50 (Homo sapiens) [µM] | IC50 (HeLa) [µM]
1 | O=C(CS)NCCCCCC(=O)Nc1cnc2ccccc2c1 | 50 | 80 | 100 | 
2 | O=C(CS)NCCCCCC(=O)Nc1cccc2cccnc12 | 33 | 42 | 31 | 30
3 | CN(C)c1ccc(C(=O)NCCCCCNC(=O)CS)cc1 | 110 | 125 | 100 | 108
4 | O=C(CS)NCCCCCNC(=O)c1ccc(-c2ccccc2)cc1 | 100 |  | 130 | 80

Reference: ChEMBL document CHEMBL1142006, “Chemistry and biology of mercaptoacetamides as novel histone deacetylase inhibitors” (Bioorg Med Chem Lett, 2005)
